Activity data for seven compounds are collected here from ChEMBL document CHEMBL3227970, “The benzodiazepine story” (J Med Chem, 1979).

“And” between values parts separate entries of the source, which are not always exact repeats. Equal entries are not always repeated. The source made the active and inactive calls. No cut-off for these calls is given here.

The subject of data set [1] is Mus musculus. As to the kind of experiment: Induction of muscle relaxation/sedation in po dosed mouse by inclined screen test. It is filed as functional.
For data set [2], the system named is Mus musculus. Description: Induction of taming effect in po dosed mouse by foot shock method. It is filed as functional.
The test system of data set [3] is Felis catus. As to the kind of experiment: Muscle relaxing activity in po dosed cat. It is filed as functional.
In data set [4] the test system is Mus musculus. As to the kind of experiment: Anticonvulsant activity in po dosed mouse assessed as reduction of pentylenetetrazole-induced seizures. It is filed as functional.
Data set [5] has as its system Mus musculus. Description: Anticonvulsant activity in po dosed mouse assessed as reduction of maximal electroshock-induced seizures. It is filed as functional.
For data set [6], the system named is Mus musculus. As to the kind of experiment: Anticonvulsant activity in po dosed mouse assessed as reduction of minimal electroshock-induced seizures. It is filed as functional.
Data set [7] is filed under the species Mus musculus. As to the kind of experiment: Toxicity in mouse assessed as effect on central nervous system. It is filed as organism-based. The note with it: in vivo.
Data set [8] deals with Rhesus monkey. As to the kind of experiment: Induction of taming effect in monkey by foot shock method. It is filed as functional, organism-based. Conditions: Macaca mulatta.
Data set [9] is filed under the species Mus musculus. Description: Toxicity in mouse. It is filed as organism-based. The note with it: in vivo.

In the case of `CN(C)CCCN1c2ccccc2Sc2ccc(Cl)cc21` [CHLORPROMAZINE], the Activity was 17 mg/kg in data set [1]; 20 mg/kg in data set [2]; 2.5 mg/kg in data set [3]; 42 mg/kg in [4]; 150 mg/kg in data set [5]; 600 mg/kg in [6]. Besides, in data set [7], the Activity result is given as “Toxic”.

`CN1C(=O)CN=C(c2ccccc2)c2cc(Cl)ccc21` [DIAZEPAM]: the Activity in data set [1] is 75 mg/kg and 30 mg/kg.

`COC(=O)[C@H]1[C@H]2C[C@@H]3c4[nH]c5cc(OC)ccc5c4CCN3C[C@H]2C[C@@H](OC(=O)c2cc(OC)c(OC)c(OC)c2)[C@@H]1OC` [RESERPINE]: in data set [7], the Activity result is reported as “Toxic”.

On to `CNC1=Nc2ccc(Cl)cc2C(c2ccccc2)=[N+]([O-])C1.Cl` [CHLORDIAZEPOXIDE HYDROCHLORIDE], for which the Activity worked out at 100 mg/kg in data set [1]; 40 mg/kg in data set [2]; 2 mg/kg in data set [3]; 18 mg/kg in data set [4]; 92 mg/kg in [5]; 150 mg/kg in [6]. The Activity entry was “Non-toxic” in [7] and 620 mg/kg in data set [9]. In addition, the outcome in [8] was Active.

`CCCC(C)(COC(N)=O)COC(N)=O` [MEPROBAMATE]: the Activity turned out to be 250 mg/kg in [1]; 250 mg/kg in [2]; 100 mg/kg in [3]; 150 mg/kg in data set [4]; 200 mg/kg in [5]; 167 mg/kg in data set [6].

Consider `CCC1(c2ccccc2)C(=O)NC(=O)NC1=O` [PHENOBARBITAL], for which the Activity in data set [1] stood at 120 mg/kg; in data set [2] it was 80 mg/kg; in data set [3] it was 10 mg/kg; in data set [4], 75 mg/kg; in data set [5], 18 mg/kg; in data set [6], 90 mg/kg.

Regarding `O=C1C[N+]([O-])=C(c2ccccc2)c2cc(Cl)ccc2N1` [DEMOXEPAM], the Activity in data set [1] came to 100 mg/kg; in data set [2], 20 mg/kg; in [3], 2 mg/kg; in data set [4], 15 mg/kg; in [5], 150 mg/kg; in [6], 150 mg/kg.
